Measured values taken from PubChem BioAssay AID2060613 (Molecular Pharmacology Branch, DTP, NCI, 2025).
Several values for one entry are separate records, joined by “and”; a condition that tells them apart may be missing. Equal entries are not always repeated.

System: 233499-124-R-J3-PDC complex spheroid viability
Experiment: Anticancer human tumor 233499-124-R-J3-PDC patient-derived colon adenocarcinoma cell line growth inhibition [CLK]
Details: for viability, T/C: stronger effect = lower value
Outline: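 Multi-cell-type spheroids combined patient-derived tumor cells with HUVEC endothelial cells and human mesenchymal stem cells. Paired agents were dosed in half-log steps down from about clinical Cmax, or from 10 microM where Cmax was unknown.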

[1] = curve of first compound, second compound 0.0316 µM
[2] = curve of first compound, second compound 0.1 µM
[3] = curve of first compound, second compound 0.316 µM
[4] = curve of first compound, second compound 1 µM
[5] = curve of first compound, second compound 3.16 µM
[6] = curve of first compound, second compound 10 µM
[7] = second compound 0.0316 µM, first compound 0.00949 µM
[8] = second compound 0.0316 µM, first compound 0.03 µM
[9] = second compound 0.0316 µM, first compound 0.0949 µM
[10] = second compound 0.0316 µM, first compound 0.3 µM
[11] = second compound 0.1 µM, first compound 0.00949 µM
[12] = second compound 0.1 µM, first compound 0.03 µM
[13] = second compound 0.1 µM, first compound 0.0949 µM
[14] = second compound 0.1 µM, first compound 0.3 µM
[15] = second compound 0.316 µM, first compound 0.00949 µM
[16] = second compound 0.316 µM, first compound 0.03 µM
[17] = second compound 0.316 µM, first compound 0.0949 µM
[18] = second compound 0.316 µM, first compound 0.3 µM
[19] = second compound 1 µM, first compound 0.00949 µM
[20] = second compound 1 µM, first compound 0.03 µM
[21] = second compound 1 µM, first compound 0.0949 µM
[22] = second compound 1 µM, first compound 0.3 µM
[23] = second compound 3.16 µM, first compound 0.00949 µM
[24] = second compound 3.16 µM, first compound 0.03 µM
[25] = second compound 3.16 µM, first compound 0.0949 µM
[26] = second compound 3.16 µM, first compound 0.3 µM
[27] = second compound 10 µM, first compound 0.00949 µM
[28] = second compound 10 µM, first compound 0.03 µM
[29] = second compound 10 µM, first compound 0.0949 µM
[30] = second compound 10 µM, first compound 0.3 µM
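Also: spheroids exposed to the drug combinations for seven days.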
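For viability, T/C in this document: percent viability relative to DMSO vehicle control wells taken as 100%.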

Nc1ccccc1NC(=O)c1ccc(CNC(=O)OCc2cccnc2)cc1 + CN1CCN(c2cc(C(=O)Nc3cc4cc(-c5cnn(C)c5)ccc4cn3)ccn2)CC1
IC50 [1]: 1690 nM | IC50 [2]: 1110 nM | IC50 [3]: < 31.6 nM | IC50 [4]: < 31.6 nM | IC50 [5]: < 31.6 nM | IC50 [6]: < 31.6 nM | viability, T/C (second compound 0.0316 µM, first compound 0.0316 µM): 96.3% | viability, T/C (second compound 0.0316 µM, first compound 0.1 µM): 89.9% | viability, T/C (second compound 0.0316 µM, first compound 0.316 µM): 93.6% | viability, T/C (second compound 0.0316 µM, first compound 1 µM): 80.5% | viability, T/C (second compound 0.0316 µM, first compound 3.16 µM): 13.5% | viability, T/C (second compound 0.0316 µM, first compound 10 µM): 0.6% | viability, T/C (second compound 0.1 µM, first compound 0.0316 µM): 89.3% | viability, T/C (second compound 0.1 µM, first compound 0.1 µM): 100% | viability, T/C (second compound 0.1 µM, first compound 0.316 µM): 80.2% | viability, T/C (second compound 0.1 µM, first compound 1 µM): 56.6% | viability, T/C (second compound 0.1 µM, first compound 3.16 µM): 2.92% | viability, T/C (second compound 0.1 µM, first compound 10 µM): 0.44% | viability, T/C (second compound 0.316 µM, first compound 0.0316 µM): 17.7% | viability, T/C (second compound 0.316 µM, first compound 0.1 µM): 47.3% | viability, T/C (second compound 0.316 µM, first compound 0.316 µM): 2.45% | viability, T/C (second compound 0.316 µM, first compound 1 µM): 0.63% | viability, T/C (second compound 0.316 µM, first compound 3.16 µM): 0.47% | viability, T/C (second compound 0.316 µM, first compound 10 µM): 0.63% | viability, T/C (second compound 1 µM, first compound 0.0316 µM): 0.46% | viability, T/C (second compound 1 µM, first compound 0.1 µM): 0.44% | viability, T/C (second compound 1 µM, first compound 0.316 µM): 0.62% | viability, T/C (second compound 1 µM, first compound 1 µM): 0.56% | viability, T/C (second compound 1 µM, first compound 3.16 µM): 0.57% | viability, T/C (second compound 1 µM, first compound 10 µM): 1.23% | viability, T/C (second compound 3.16 µM, first compound 0.0316 µM): 0.65% | viability, T/C (second compound 3.16 µM, first compound 0.1 µM): 0.68% | viability, T/C (second compound 3.16 µM, first compound 0.316 µM): 0.7% | viability, T/C (second compound 3.16 µM, first compound 1 µM): 0.66% | viability, T/C (second compound 3.16 µM, first compound 3.16 µM): 0.69% | viability, T/C (second compound 3.16 µM, first compound 10 µM): 0.59% | viability, T/C (second compound 10 µM, first compound 0.0316 µM): 0.18% | viability, T/C (second compound 10 µM, first compound 0.1 µM): 0.24% | viability, T/C (second compound 10 µM, first compound 0.316 µM): 0.28% | viability, T/C (second compound 10 µM, first compound 1 µM): 0.28% | viability, T/C (second compound 10 µM, first compound 3.16 µM): 0.26% | viability, T/C (second compound 10 µM, first compound 10 µM): 0.35%

NC(=O)C(=Cn1cnc(-c2cc(C(F)(F)F)cc(C(F)(F)F)c2)n1)c1cncnc1 + CN1CCN(c2cc(C(=O)Nc3cc4cc(-c5cnn(C)c5)ccc4cn3)ccn2)CC1
IC50 [1]: 181 nM | IC50 [2]: 76.8 nM | IC50 [3]: < 9.49 nM | IC50 [4]: < 9.49 nM | IC50 [5]: < 9.49 nM | IC50 [6]: < 9.49 nM | viability, T/C [7]: 72.5% | viability, T/C [8]: 85.6% | viability, T/C [9]: 67.3% | viability, T/C [10]: 35.2% | viability, T/C (second compound 0.0316 µM, first compound 0.949 µM): 10.4% | viability, T/C (second compound 0.0316 µM, first compound 3 µM): 2.15% | viability, T/C [11]: 102% | viability, T/C [12]: 96.2% | viability, T/C [13]: 39.2% | viability, T/C [14]: 7.63% | viability, T/C (second compound 0.1 µM, first compound 0.949 µM): 0.53% | viability, T/C (second compound 0.1 µM, first compound 3 µM): 0.43% | viability, T/C [15]: 22.2% | viability, T/C [16]: 13.2% | viability, T/C [17]: 0.29% | viability, T/C [18]: 0.23% | viability, T/C (second compound 0.316 µM, first compound 0.949 µM): 0.39% | viability, T/C (second compound 0.316 µM, first compound 3 µM): 1.07% | viability, T/C [19]: 0.3% | viability, T/C [20]: 0.31% | viability, T/C [21]: 0.31% | viability, T/C [22]: 0.25% | viability, T/C (second compound 1 µM, first compound 0.949 µM): 0.48% | viability, T/C (second compound 1 µM, first compound 3 µM): 0.23% | viability, T/C [23]: 0.3% | viability, T/C [24]: 0.26% | viability, T/C [25]: 0.25% | viability, T/C [26]: 0.25% | viability, T/C (second compound 3.16 µM, first compound 0.949 µM): 0.21% | viability, T/C (second compound 3.16 µM, first compound 3 µM): 0.19% | viability, T/C [27]: 0.13% | viability, T/C [28]: 0.12% | viability, T/C [29]: 0.19% | viability, T/C [30]: 0.17% | viability, T/C (second compound 10 µM, first compound 0.949 µM): 0.19% | viability, T/C (second compound 10 µM, first compound 3 µM): 0.21%

C=C(F)C(=O)N1CCN(c2nc(OCC3CCCN3C)nc3c2CCN(c2cccc4cccc(Cl)c24)C3)CC1CC#N (configuration not stated)
viability, T/C (compound 0.0316 µM): 99.9% and 96.2% | viability, T/C (compound 0.1 µM): 86.9% and 90.1% | viability, T/C (compound 0.316 µM): 97% and 99.1% | viability, T/C (compound 1 µM): 95.4% and 97.3% | viability, T/C (compound 3.16 µM): 94.6% and 89.2% | viability, T/C (compound 10 µM): 38% and 87.9% | IC50 (curve of compound): 7840 nM and > 10000 nM

Nc1ccccc1NC(=O)c1ccc(CNC(=O)OCc2cccnc2)cc1
viability, T/C (compound 0.0316 µM): 91.4% and 90.3% | viability, T/C (compound 0.1 µM): 87.2% and 89.8% | viability, T/C (compound 0.316 µM): 74.4% and 96.3% | viability, T/C (compound 1 µM): 78% and 89.7% | viability, T/C (compound 3.16 µM): 32.4% and 33.4% | viability, T/C (compound 10 µM): 0.79% and 1.47% | IC50 (curve of compound): 2000 nM and 2250 nM

CC(=O)O[C@H]1C(=O)[C@@]2(C)[C@H]([C@H](OC(=O)c3ccccc3)[C@]3(O)C[C@H](OC(=O)[C@H](O)[C@@H](NC(=O)c4ccccc4)c4ccccc4)C(C)=C1C3(C)C)[C@]1(OC(C)=O)CO[C@@H]1C[C@@H]2O
viability, T/C (compound 0.0316 µM): 63.2% and 74.1% | viability, T/C (compound 0.1 µM): 38.9% and 31.5% | viability, T/C (compound 0.316 µM): 19.9% and 8.71% | viability, T/C (compound 1 µM): 17.4% and 11% | viability, T/C (compound 3.16 µM): 20.4% and 9.09% | viability, T/C (compound 10 µM): 24.4% and 16.4% | IC50 (curve of compound): 59.1 nM and 60.7 nM

CC(C)CC(NC(=O)C(Cc1ccccc1)NC(=O)c1cnccn1)B(O)O (configuration not stated) + CNC(=O)c1ccc(Nc2nc(OC3CCCC3)c3c(-c4ccc5nc(C)oc5c4)c[nH]c3n2)c(OC)c1
IC50 [1]: 5.39 nM | IC50 [2]: 4.71 nM | IC50 [3]: 2.27 nM | IC50 [4]: 2.07 nM | IC50 [5]: 1.51 nM | IC50 [6]: 1.97 nM | viability, T/C (second compound 0.0316 µM, first compound 0.000949 µM): 96.3% | viability, T/C (second compound 0.0316 µM, first compound 0.003 µM): 106% | viability, T/C [7]: 0.33% | viability, T/C [8]: 0.21% | viability, T/C [9]: 0.19% | viability, T/C [10]: 0.17% | viability, T/C (second compound 0.1 µM, first compound 0.000949 µM): 81.5% | viability, T/C (second compound 0.1 µM, first compound 0.003 µM): 82.5% | viability, T/C [11]: 0.57% | viability, T/C [12]: 0.17% | viability, T/C [13]: 0.16% | viability, T/C [14]: 0.16% | viability, T/C (second compound 0.316 µM, first compound 0.000949 µM): 69.5% | viability, T/C (second compound 0.316 µM, first compound 0.003 µM): 43.7% | viability, T/C [15]: 0.19% | viability, T/C [16]: 0.16% | viability, T/C [17]: 0.14% | viability, T/C [18]: 0.54% | viability, T/C (second compound 1 µM, first compound 0.000949 µM): 92.2% | viability, T/C (second compound 1 µM, first compound 0.003 µM): 30.1% | viability, T/C [19]: 0.18% | viability, T/C [20]: 0.15% | viability, T/C [21]: 0.15% | viability, T/C [22]: 0.15% | viability, T/C (second compound 3.16 µM, first compound 0.000949 µM): 71.7% | viability, T/C (second compound 3.16 µM, first compound 0.003 µM): 18.4% | viability, T/C [23]: 0.16% | viability, T/C [24]: 0.16% | viability, T/C [25]: 0.16% | viability, T/C [26]: 0.7% | viability, T/C (second compound 10 µM, first compound 0.000949 µM): 77% | viability, T/C (second compound 10 µM, first compound 0.003 µM): 34.5% | viability, T/C [27]: 0.2% | viability, T/C [28]: 0.17% | viability, T/C [29]: 0.2% | viability, T/C [30]: 0.66%
